Measured values published in patent US7879795B2, “Enhancement of tigecycline potency using efflux pump inhibitors” (Mpex Pharmaceuticals, Inc., priority 2004, dated 2011).

Columns and labels:
[1] = system: PAM 1753, MexEF-OprN over-expressed; assay: Tigecycline potentiation checkerboard assay, PAM 1753; type: cell-based, P. aeruginosa; design: Tigecycline MIC in the presence of Compound 21: unit not given here; details: PAM 1753
Protocol: (§1) The ability of compound 21 to increase susceptibility to tigecycline was also assessed. The tigecycline potentiating activity of compound 21 was assessed by the checkerboard assay (Antimicrobial Combinations, Antibiotics in Laboratory Medicine, ed. Victor Lorian, M.D., Fourth edition, 1996, pp 333-338, which is incorporated herein by reference in its entirety) using a broth micro-dilution method performed as recommended by the CSLI (Clinical and Laboratory Standards Institute, formerly NCCLS) guidelines (National Committee for Clinical Laboratory Standards 2003. Methods for Dilution Antimicrobial Susceptibility Tests for Bacteria That Grow Aerobically—Sixth Edition; Approved Standard. NCCLS Document M7-A6, Vol 20 No. 2). In this assay, multiple dilutions of the two drugs, compound 21 and tigecycline, were tested alone and in combination, at concentrations equal to, above and below their respective minimal inhibitory concentrations (MICs). […] The stock solution was further diluted in Mueller Hinton Broth (MHB). Stock solutions were stored at −80° C.
(§2) The checkerboard assay was performed in microtiter plates. Tigecycline was diluted in the x axis, each column containing a single concentration of tigecycline. Compound 21 was diluted in the y axis, each row containing an equal concentration of the EPI. […] The assay was performed in MHB with a final bacterial inoculum of 5×10^5 CFU/ml (from an early-log phase culture). The microtiter plates were incubated for 20 hours at 35° C. and then read using a microtiter plate reader (Molecular Devices) at 650 nm, as well as by visual observation using a microtiter plate-reading mirror.

[2] = system: 110 clinical isolates of P. aeruginosa; assay: Tigecycline susceptibility of P. aeruginosa clinical isolates with fixed concentration of compound 21; type: cell-based
Protocol: To further characterize the clinical potential of tigecycline/EPI combinations, the microbiological activity of tigecycline in combination with compound 21 was investigated using clinical isolates of P. aeruginosa and other gram-negative bacteria. In several experiments, described below, the impact of a fixed concentration of compound 21 (2.5 μg/ml) on susceptibility to tigecycline was determined.
Results from an experiment using 110 clinical isolates of P. aeruginosa are presented in FIG. 1, as the distribution of tigecycline MICs with or without the EPI potentiator.

[3] = system: PAM 2466, mexR1, MexAB-OprM and MexXY-OprM over-expressed; assay: microbe, parasite or virus in culture; type: cell-based, P. aeruginosa; design: Tigecycline MIC in the presence of Compound 21: unit not given here; details: PAM 2466
Protocol: as §1, §2

[4] = system: PAM 1323, mexZ, MexXY-OprM over-expressed, MexAB-OprM low level; assay: microbe, parasite or virus in culture; type: cell-based, P. aeruginosa; design: Tigecycline MIC in the presence of Compound 21: unit not given here; details: PAM 1323
Protocol: as §1, §2

[5] = system: PAM 1738, MexCD-OprJ over-expressed, ΔMexAB-OprM ΔMexEF-OprN; assay: microbe, parasite or virus in culture; type: cell-based, P. aeruginosa; design: Tigecycline MIC in the presence of Compound 21: unit not given here; details: PAM 1738
Protocol: as §1, §2

[6] = system: PAM 1723, MexAB-OprM over-expressed, ΔMexCD-OprJ ΔMexEF-OprN; assay: microbe, parasite or virus in culture; type: cell-based, P. aeruginosa; design: Tigecycline MIC in the presence of Compound 21: unit not given here; details: PAM 1723
Protocol: as §1, §2

[7] = Tissue levels after 5 day repeated dosing in rat; type: in vivo; details: 20 mg/kg twice daily for 5 days, 6 hours after last dose
Protocol: The decreased tissue accumulation of compound 3 vis-a-vis 1 was confirmed in a multi-dose experiment. Rats received 20 mg/kg of either compound twice daily for 5 days. Animal were sacrificed 6 hours after the last dose and levels of compounds in kidneys, liver and lung were determined. FIG. 14 depicts the measured tissue levels. Approximately 100-fold, 60-fold, and 10-fold less compound 3 accumulated in kidney, liver and lung respectively, as compared to compound 1.

[8] = tigecycline with compound 21 at fixed […], 110 clinical isolates

NCCC[C@H](N)C(=O)N[C@H](Cc1ccc(C(F)(F)F)cc1)C(=O)Nc1cnc2ccccc2c1 [Compound 21, 2-(S),5-Diamino-pentanoic acid [1-(R)-(quinolin-3-ylcarbamoyl)-2-(4-trifluoromethyl-phenyl)-ethyl]amide]
2: Tigecycline MIC in the presence of Compound 21 ([3]; Compound 21 1.25 μg/ml) | Tigecycline MIC in the presence of Compound 21 ([4]; Compound 21 0.625 μg/ml) | Tigecycline MIC in the presence of Compound 21 ([6]; Compound 21 1.25 μg/ml)
0.25: Tigecycline MIC in the presence of Compound 21 ([1]; Compound 21 5 μg/ml) | Tigecycline MIC in the presence of Compound 21 ([1]; Compound 21 10 μg/ml) | Tigecycline MIC in the presence of Compound 21 ([1]; Compound 21 20 μg/ml) | Tigecycline MIC in the presence of Compound 21 ([1]; Compound 21 40 μg/ml) | Tigecycline MIC in the presence of Compound 21 ([1]; Compound 21 […]) | Tigecycline MIC in the presence of Compound 21 ([5]; Compound 21 5 μg/ml) | Tigecycline MIC in the presence of Compound 21 ([5]; Compound 21 10 μg/ml) | Tigecycline MIC in the presence of Compound 21 ([5]; Compound 21 20 μg/ml) | Tigecycline MIC in the presence of Compound 21 ([5]; Compound 21 40 μg/ml) | Tigecycline MIC in the presence of Compound 21 ([5]; Compound 21 […])
8 fold: reduction of tigecycline MIC50 and MIC90 of the population ([2]; compound 21 at […])
0.25 µg/mL: MIC50, Tigecycline + EPI [2, 8]
98%: strains that responded to compound 21 ([2]; individual strains tested)
0.5: Tigecycline MIC in the presence of Compound 21 ([3]; Compound 21 5 μg/ml) | Tigecycline MIC in the presence of Compound 21 ([3]; Compound 21 10 μg/ml) | Tigecycline MIC in the presence of Compound 21 ([3]; Compound 21 20 μg/ml) | Tigecycline MIC in the presence of Compound 21 ([3]; Compound 21 40 μg/ml) | Tigecycline MIC in the presence of Compound 21 ([3]; Compound 21 […]) | Tigecycline MIC in the presence of Compound 21 ([4]; Compound 21 5 μg/ml) | Tigecycline MIC in the presence of Compound 21 ([4]; Compound 21 10 μg/ml) | Tigecycline MIC in the presence of Compound 21 ([4]; Compound 21 20 μg/ml) | Tigecycline MIC in the presence of Compound 21 ([4]; Compound 21 40 μg/ml) | Tigecycline MIC in the presence of Compound 21 ([4]; Compound 21 […]) | Tigecycline MIC in the presence of Compound 21 ([5]; Compound 21 1.25 μg/ml) | Tigecycline MIC in the presence of Compound 21 ([6]; Compound 21 5 μg/ml) | Tigecycline MIC in the presence of Compound 21 ([6]; Compound 21 10 μg/ml) | Tigecycline MIC in the presence of Compound 21 ([6]; Compound 21 20 μg/ml) | Tigecycline MIC in the presence of Compound 21 ([6]; Compound 21 40 μg/ml) | Tigecycline MIC in the presence of Compound 21 ([6]; Compound 21 […])
1: Tigecycline MIC in the presence of Compound 21 ([1]; Compound 21 0.625 μg/ml) | Tigecycline MIC in the presence of Compound 21 ([1]; Compound 21 1.25 μg/ml) | Tigecycline MIC in the presence of Compound 21 ([4]; Compound 21 1.25 μg/ml) | Tigecycline MIC in the presence of Compound 21 ([5]; Compound 21 0.625 μg/ml)
4: Tigecycline MIC in the presence of Compound 21 ([3]; Compound 21 0.625 μg/ml) | Tigecycline MIC in the presence of Compound 21 ([6]; Compound 21 0.625 μg/ml)
1 µg/mL: MIC90, Tigecycline + EPI [2, 8]

NCCC[C@H](N)C(=O)N[C@H](CCc1ccccc1)C(=O)Nc1cnc2ccccc2c1 [Compound 3, 2-(S),5-Diamino-pentanoic acid [3-phenyl-1-(R)-(quinolin-3-ylcarbamoyl)-propyl]-amide]
Approximately 100 fold: less compound 3 accumulated as compared to compound 1 ([7]; rat kidney)
~60 fold: less compound 3 accumulated as compared to compound 1 ([7]; rat liver)
~10 fold: less compound 3 accumulated as compared to compound 1 ([7]; rat lung)
